We go through two molecules from US20110086924A1, “Method of manufacturing an eutectic crystalline sugar alcohol” (B Food Science Co., Ltd., priority 2005, published 2011).

The nature of the data set: Dissolving time in water (rate of dissolution). The class given is physicochemical. The note with it: 10 g in 100 ml water at 20° C.; particle size 150 μm or more but less than 350 μm. The source says: Powder containing an eutectic crystalline sorbitol/maltitol prepared by the same way as that of Example 11 was classified into a part (crude particle part) having a particle size of 350 μm or more but less than 2 mm and a part (powdery product of 150 to 350 μm in particle size) having a particle size of 150 μm or more but less than 350 μm.
In addition, as a control, powdery sorbitol (SORBITOL FP, manufactured by NIKKEN FINE CHEMICALS CO., LTD.), powdery maltitol (AMARTY MR, manufactured by TOWA KASEI CO., LTD.), and a mixture of powdery sorbitol and powdery maltitol (1:1), which were classified so as to have a particle size of 150 μm or more but less than 350 μm (powdery product of 150 to 350 μm in particle size), were prepared.
Ten grams of each of them was poured into 100 ml of water at 20° C. and then subjected to the measurement of dissolving time. Consequently, the crude part of the powder containing an eutectic crystalline sorbitol/maltitol dissolved within 50 seconds, the powdery product of the powder containing an eutectic crystalline sorbitol/maltitol having a particle size of 150 to 350 μm dissolved within 18 seconds, the powdery sorbitol dissolved within 35 seconds, the powdery maltitol dissolved within 54 seconds, and the mixture of the powdery sorbitol and the powdery maltitol dissolved within 46 seconds.

Molecules are shown by their SMILES.

Take `OC[C@@H](O)[C@@H](O[C@H]1O[C@H](CO)[C@@H](O)[C@H](O)[C@H]1O)[C@H](O)[C@@H](O)CO` [powdery maltitol, maltitol]: the dissolving time is no more than 54 s.

`OC[C@@H](O)[C@@H](O)[C@H](O)[C@@H](O)CO` [powdery sorbitol, sorbitol] showed a dissolving time of no more than 35 s.
